From patent US10925858B2, “S-nitrosoglutathione (GSNO) and GSNO reductase inhibitors for use in therapy” (MUSC FOUNDATION FOR RESEARCH DEVELOPMENT, priority 2017, dated 2021)

Legend:
myosin light chain (MLC) = experiment: Western analysis of MLC phosphorylation (Ser19) in thrombin treated hBMVECs; type: cell-based, human; settings: thrombin 0.1 unit/ml 5 min; L-NIO or FeTPPS 10 μM; GSNO or SIN-1 various concentrations
Experimental: Cell culture: Primary human brain microvascular endothelial cells (hBMVECs) were purchased from Angio-Proteomie (Cat #: cAP-0002, Atlanta, Ga.). The cells were cultured in cell culture flasks or plates precoated with Quick Coating Solution (Angio-Proteomie; Cat #: cAP-01) and maintained in Endothelial Growth Medium (Angio-Proteomie; Cat #: cAP-02) at 37° C. under 5% CO2/95% air. When the cells were almost confluent, the medium was replaced with endothelial basal medium (Angio-Proteomie; Cat #: cAP-03) containing 0.5% fetal bovine serum (FBS; Life Technologies, Grand Island, N.Y.) about 8-12 hours before the experiment. No institutional approval was required for this study. The study was not pre-registered.
Western immunoblot analysis was performed by standard method using 50 μg of cell lysates. Following the SDS-PAGE electrophoresis, proteins were transferred from the gel onto the Polyvinylidene fluoride membrane (GE Healthcare Life Sciences, Marlborough, Mass.). Membranes were blocked with non-fat dry milk (Santa Cruz Biotechnology) or I-Block™ (ThermoFisher Scientific, Waltham, Mass.) for detection of phospho-proteins and incubated with primary antibodies, such as MBP (Santa Cruz Biotech Cat #: sc13914; RRID: AB_648798), phospho-(Ser^19) MLC (Abeam, Cat #: ab2480; RRID: AB_303094), MLC (Abeam, Cat #: ab79935; RRID:AB_1952220), P-actin (Santa Cruz Biotechnology, Cat #: sc-47778; RRID:AB_2714189), phospho-eNOS (Ser^1177) (Cell Signaling, Cat #: 9571; RRID: AB_329837, Danvers, Mass.), eNOS (Cell Signaling, Cat #: 32027), RhoA (Santa Cruz Biotechnology; Cat #: sc418; RRID: AB_628218) or 3-nitrotyrosine (Abeam, Cat #: ab61392; RRID: AB_942087). Following washing, the membranes were incubated with horseradish peroxidase conjugated secondary antibody (Jackson Immunoresearch Lab, West Grove, Pa.), washed and then incubated with ECL reagent (Amersham Life Science, Pittsbrugh, Pa.), and exposed to Amersham Hyperfilm ECL film

[1] = system: CD4+ T cells (TH1, TH2, TH17, Treg); experiment: Fluorescence flow cytometry, polarization/expansion of CD4+ T cell subsets in spleens of EAE mice; parameters: species or system C57BL/6 mice; settings: EAE mice at peak of disease, ex vivo MOG restimulation
Experimental: Female C57BL/6 mice of 8-12 weeks of age, purchased from Jackson Laboratory, were provided with food and water ad libitum and were kept in pathogen free animal care facility of Medical University of South Carolina (MUSC) throughout the study. All procedures were conducted in accordance with accepted standards of humane care as approved by the Institutional Animal Care and Use Committee (Approved number: AR #1644). EAE was induced as described previously (Nath et al., 2009). Briefly, mice were immunized subcutaneously in the flank regions with MOG35-55 peptide (MOG; 200 μg; Peptide International) emulsified (1:1) in 100 ul complete Freund's adjuvant (CFA) on day 0 and day 7. Additionally, 300 ng of Pertussis toxin (Sigma-Aldrich, St. Louis, Mo.) was given on day 0 and day 2 by i.p. injection. Pertussis toxin used as per the standardized protocol reported by us and other investigators for the induction of EAE (Nath et al., 2009). Similarly, healthy control group received subcutaneous injection of PBS and CFA emulsion on day 0 and day 7. Clinical signs of EAE were scored by examiners blinded to experimental treatments using the following scale: 0=no clinical signs of disease; 1=piloerection and sluggish; 2=limp tail (ataxia); 2.5=ataxia with partial hind limb paralysis; 3=full paralysis of hind limb; 3.5=full paralysis of hind limb with paralysis of one fore limb; 4=full paralysis of two limbs; 4.5=moribund stage; 5=death. […] The drug treatments were continued till the termination of the study (day 41 post immunization). EAE animals without drug treatment received PBS. Likewise, healthy controls received vehicle.
Fluorescence flow cytometry analysis for each subset of CD4+ T cells (TH1, TH2, TH17, CD4+CD25+ FOXP3+ Treg, and CD4+CD25+ FOXP3− Treg) were performed based on our previous report with modification (Nath et al., 2004). Briefly, control mice, EAE mice. EAE mice treated with GSNO. […] Following the preparation of single cell suspension, red blood cells were lysed with Pharma lyse buffer (BD Pharmingen™) and the remaining spleen cells were washed with RPMI 1640. The isolated CD4+ T cells were then resuspended with complete RPMI-media in 12-well plates (5×10^6 cells' 2 ml per well) containing MOG peptide (25 μg/ml) for 48 hrs. Following the centrifugation, the resulted supernatants were collected for ELISA for CD4+ subset specific cytokines (see below). The cell pellets were washed with cell staining solution (ebioscience, Waltham, Mass. USA) and stained with fluorescence labeled antibody specific to IFN-γ for TH1. IL-4 for TH2, IL-17 for TH17, CD25+ for total Treg. CD25+ and FOXP3+ for FOXP3+ Treg, and CD25+ and FOXP3− for FOXP3-Tregs (ebioscience, Waltham, Mass., USA). The cells were counted and analyzed using Beackman Coulter instrument (Beckman Coulter, Inc., Brea, Calif., USA).

Question: Which “thrombin-induced MLC phosphorylation” value (myosin light chain (MLC)) does the source give for `Cl.O=S(=O)([O-])c1ccc(-c2c3nc(c(-c4ccc(S(=O)(=O)O)cc4)c4ccc([nH]4)c(-c4ccc(S(=O)(=O)O)cc4)c4nc(c(-c5ccc(S(=O)(=O)O)cc5)c5ccc2[nH]5)C=C4)C=C3)cc1.[Fe]` [FeTPPS, 5,10,15,20-Tetrakis(4-sulfonatophenyl)porphyrinato Iron (III), Cl, reference compound] here?
Answer: inhibited

Question: How did the “TH2 polarization/expansion in spleens” value [1] turn out when `Cc1cc(C(N)=O)ccc1-n1c(CCC(=O)O)ccc1-c1ccc(-n2ccnc2)cc1` [N6022, reference compound] was run?
Answer: fully restored

Question: What about the “polarization/expansion of CD4+CD25+ FOXP3+ Treg cells in spleens” value [1] of the same molecule?
Answer: restored

Question: And the “polarization/expansion of CD4+CD25+ FOXP3− Treg cells in spleens” value [1]?
Answer: increased

Question: What about the “polarization/expansion of TH1 cells in spleens” value [1] of the same molecule?
Answer: reduced

Question: What about the “polarization/expansion of TH17 cells in spleens” value [1] of the same molecule?
Answer: reduced

Question: For `N[C@@H](CCC(=O)N[C@@H](CSN=O)C(=O)NCC(=O)O)C(=O)O` [GSNO, S-nitrosoglutathione], which “polarization/expansion of CD4+CD25+ FOXP3+ Treg cells in spleens” value [1] is on record?
Answer: without altering

Question: And the “polarization/expansion of CD4+CD25+ FOXP3− Treg cells in spleens” value [1]?
Answer: significantly increased

Question: And the “polarization/expansion of TH1 cells in spleens” value [1]?
Answer: no obvious effect

Question: And the “polarization/expansion of TH17 cells in spleens” value [1]?
Answer: significantly decreased

Question: What about the “polarization/expansion of total Treg cells (CD4+CD25+) in spleens” value [1] of the same molecule?
Answer: increased

Question: What about the “thrombin-induced MLC phosphorylation” value (myosin light chain (MLC)) of the same molecule?
Answer: attenuated
